Measurements reported in patent US6333320A, “Hexahydro-1,4-diazepine derivatives or salts thereof” (Yamanouchi Pharmaceutical Co., priority 1997, dated 2001).
Counter-ions that a name gives are not always drawn.

molecular target: T1, human activated blood coagulation factor X (Homo sapiens, UniProt P00742); assay: measuring the time for blood coagulation with the human activated blood coagulation factor X; type: biochemical; conditions: dose of the test compound for 2-time prolongation of the coagulation time; human plasma, 37° C.; read-out: Test for measuring coagulation time with the human activated blood coagulation factor X, CT2
T1 construct: disulfide-linked light and heavy chains of one precursor) added to human plasma with CaCl2; clotting time CT2
T1 sequence (P00742 41-179): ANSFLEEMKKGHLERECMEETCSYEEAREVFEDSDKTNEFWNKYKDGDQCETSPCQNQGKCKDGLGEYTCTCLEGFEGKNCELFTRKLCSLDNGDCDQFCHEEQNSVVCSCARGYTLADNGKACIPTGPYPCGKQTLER
T1 sequence (P00742 235-488): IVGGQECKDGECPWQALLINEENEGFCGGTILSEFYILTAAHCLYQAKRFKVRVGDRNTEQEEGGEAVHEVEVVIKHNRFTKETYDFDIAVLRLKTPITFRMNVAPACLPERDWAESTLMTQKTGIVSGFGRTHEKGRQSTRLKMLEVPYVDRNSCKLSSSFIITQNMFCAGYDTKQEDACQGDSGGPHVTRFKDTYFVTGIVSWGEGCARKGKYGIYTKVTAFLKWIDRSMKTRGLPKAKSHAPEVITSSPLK
Method: 1) Method of measuring the time for blood coagulation with the human activated blood coagulation factor X:
The human activated blood coagulation factor X (Cosmo-Bio Co.) was dissolved in 0.05 M tris-HCl buffer (pH=7.40) to prepare its solution of 0.05 units/ml. Blood was collected in 3.8% sodium citrate to be 1/10 by volume, and centrifuged at 3,000 rpm for 10 minutes to separate human plasma therefrom. 90 μl of the thus-prepared human plasma, 10 μl of a test compound as diluted with physiological saline, and 50 μl of the solution of the activated blood coagulation factor X were kept warmed at 37° C. for 3 minutes, to which was added 100 μl of a solution of 20 mM CaCl2, and the time for blood coagulation in the system was measured.
To measure the coagulation time, used was Amelung's KC4A. The dose of the test compound for 2-time prolongation of the coagulation time (hereinafterreferred to as CT2) was calculated on the basis of the coagulation time for the control to which was added 10 μl of physiological saline with no test compound.

Row | SMILES | EC (2-fold clotting time) [µM]
1 | CC(=N)N1CCCN(c2ccc(N(Cc3ccc4ccc(C(=N)N)cc4c3)S(=O)(=O)CC(=O)O)cc2)CC1 [Example 33, [N-[4-(4-acet-imidoylhexahydro-1H-1,4-diazepin-1-yl)phenyl]-N-[(7-amidino-2-naphthyl)methyl]sulfamoyl]acetic acid dihydro-chloride] | 0.098
2 | CCOC(=O)CNS(=O)(=O)N(Cc1ccc2ccc(C(=N)N)cc2c1)c1ccc(N2CCCN(C(C)=N)CC2)cc1 [Example 23, Ethyl N-[N-[4-(4-acetimidoylhexahydro-1H-1,4-diazepin-1-yl)phenyl]-N-[(7-amidino-2-naphthyl)methyl]-sulfamoyl]glycinate] | 0.11
3 | CC(=N)N1CCCN(c2ccc(N(Cc3ccc4ccc(C(=N)N)cc4c3)C(C)=O)cc2)CC1 [Example 17] | 0.092
4 | CC(=N)N1CCCN(c2ccc(N(Cc3ccc4ccc(C(=N)N)cc4c3)C(=O)CCC(=O)O)cc2)CC1 [Example 36, N-[4-(4-Acetimidoylhexahydro-1H-1,4-diazepin-1-yl)phenyl]-N-[(7-amidino-2-naphthyl)methyl] succinamic acid] | 0.069
5 | CC(=N)N1CCCN(c2ccc(N(Cc3ccc4ccc(C(=N)N)cc4c3)C(=S)NCC(=O)O)cc2)CC1 [Example 75, N-[4-(4-Acetimidoylhexahydro-1H-1,4-diazepin-1-yl)phenyl]-N-[(7-amidino-2-naphthyl)methyl]thioamido-acetic acid] | 0.095
6 | CCOC(=O)CS(=O)(=O)N(Cc1ccc2ccc(C(=N)N)cc2c1)c1ccc(N2CCCN(C(C)=N)CC2)cc1 [Example 22, ethyl [N-[4-(4-acetimidoylhexahydro-1H-1,4-diazepin-1-yl)phenyl]-N-[(7-amidino-2-naphthyl)methyl]-sulfamoyl]acetate dihydrochloride] | 0.111

Second part, the compound after the results:

Row | EC (2-fold clotting time) [µM] | SMILES
7 | 0.152 | CCOC(=O)CC(=O)N(Cc1ccc2ccc(C(=N)N)cc2c1)c1ccc(N2CCCN(C(C)=N)CC2)cc1 [Example 24, Ethyl N-[4-(4-acetimidoylhexahydro-1H-1,4-diazepin-1-yl)phenyl]-N-[(7-amidino-2-naphthyl)methyl]malonamate]
8 | 0.134 | CC(=N)N1CCCN(c2ccc(N(Cc3ccc4ccc(C(=N)N)cc4c3)C(=O)CCC(=O)O)cn2)CC1 [Example 84]
9 | 0.224 | CCOC(=O)CCC(=O)N(Cc1ccc2ccc(C(=N)N)cc2c1)c1ccc(N2CCCN(C(C)=N)CC2)nc1 [Example 73]
10 | 0.089 | CC(=N)N1CCCN(c2ccc(N(Cc3ccc4ccc(C(=N)N)cc4c3)S(=O)(=O)CC(=O)O)cn2)CC1 [Example 32, [N-[6-(4-Acetimidoylhexahydro-1H-1,4-diazepin-1-yl)-3-pyridyl]-N-[(7-amidino-2-naphthyl)methyl]sulfamoyl]acetic acid]
11 | 0.119 | CCOC(=O)CC(=O)N(Cc1ccc2ccc(C(=N)N)cc2c1)c1ccc(N2CCCN(C(C)=N)CC2)nc1 [Example 72]
